Literature values in patent publication US5414009A, “Azabicyclo substituted oxa- or thia-diazole compounds” (Novo Nordisk A/S, priority 1992, dated 1995).
pKd: −log10 of the molar value. Read-outs that look alike come from different tables or passages of the source.

Experiments:
M1-sites = settings: M1-site, pirenzepine sensitive site
[1] = system: muscarinic receptor in the CNS; settings: for pKd: read-out: affinity of sites labelled by 3H-Oxo
[2] = in vivo

## CN1CCN(CC(=O)N2c3ccccc3C(=O)Nc3cccnc32)CC1 [Pirenzepine, pirenzepine, [N-methyl-^3 H]]
M2-sites
  interaction with M2-sites: also interact with M2
M1-sites
  selective binding to subtype of muscarinic receptors: binds selectively to subtype of muscarinic receptors

## C[N+](C)(C)CC#CCN1CCCC1=O [Compound 3H-Oxo]
[1]; CNS
  preference for agonist domains of the receptors: with a preference for agonist domains of the receptors
[1]; first of three sites (high affinity)
  pKd: 8.74
[1]; second of three sites (medium affinity)
  pKd: 7.70
[1]; third of three sites
  pKd: 5.52

## COC(=O)C1=CCCN(C)C1 [Arecoline, methyl 1-methyl-1,2,5,6-tetrahydropyridine-3-carboxylate]
[2]
  biological half life: very short biological half life
Muscarinic cholinergic
  cholinergic agonism: cholinergic agonist
muscarinic
  separation between central and peripheral muscarinic effects: small separation between central and peripheral muscarinic effects
